Target: T1, ΔF508-CFTR (Homo sapiens, UniProt P13569, DEL508-508)
T1 construct: expressed in transfected cells; host or cells: NIH3T3 mouse fibroblasts, stably expressing, cultured at 27 °C (temperature-corrected)
Experiment: Membrane potential optical assay for identification of ΔF508-CFTR potentiators (FLIPR III, forskolin activation)
Type: cell-based
Conditions: for Emax: NIH3T3, 100% efficacy is the maximum response obtained with 4-methyl-2-(5-phenyl-1H-pyrazol-3-yl)phenol, ΔF508 CFTR NIH 3T3 cells; for EC50: temperature-corrected ΔF508 CFTR NIH 3T3 cells
Description: The assay utilizes fluorescent voltage sensing dyes to measure changes in membrane potential using a fluorescent plate reader (e.g., FLIPR III, Molecular Devices, Inc.) as a readout for increase in functional ΔF508-CFTR in NIH 3T3 cells. The driving force for the response is the creation of a chloride ion gradient in conjunction with channel activation by a single liquid addition step after the cells have previously been treated with compounds and subsequently loaded with a voltage sensing dye.
To identify potentiators of ΔF508-CFTR, a double-addition HTS assay format was developed. This HTS assay utilizes fluorescent voltage sensing dyes to measure changes in membrane potential on the FLIPR III as a measurement for increase in gating (conductance) of ΔF508 CFTR in temperature-corrected ΔF508 CFTR NIH 3T3 cells. The driving force for the response is a Cl^− ion gradient in conjunction with channel activation with forskolin in a single liquid addition step using a fluorescent plate reader such as FLIPR III after the cells have previously been treated with potentiator compounds (or DMSO vehicle control) and subsequently loaded with a redistribution dye.
Solutions • Bath Solution #1: (in mM) NaCl 160, KCl 4.5, CaCl2 2, MgCl2 1, HEPES 10, pH 7.4 with NaOH. Chloride-Free Bath Solution: Chloride Salts in Bath Solution #1 are Substituted with Gluconate Salts.
NIH3T3 mouse fibroblasts stably expressing ΔF508-CFTR are used for optical measurements of membrane potential. The cells are maintained at 37° C. in 5% CO2 and 90% humidity in Dulbecco's modified Eagle's medium supplemented with 2 mM glutamine, 10% fetal bovine serum, 1×NEAA, β-ME, 1× pen/strep, and 25 mM HEPES in 175 cm^2 culture flasks. For all optical assays, the cells were seeded at ˜20,000/well in 384-well matrigel-coated plates and cultured for 2 hrs at 37° C. before culturing at 27° C. for 24 hrs. for the potentiator assay. For the correction assays, the cells are cultured at 27° C. or 37° C. with and without compounds for 16-24 hours.

T1 sequence (P13569 with tags, fused parts or gaps DEL508-508): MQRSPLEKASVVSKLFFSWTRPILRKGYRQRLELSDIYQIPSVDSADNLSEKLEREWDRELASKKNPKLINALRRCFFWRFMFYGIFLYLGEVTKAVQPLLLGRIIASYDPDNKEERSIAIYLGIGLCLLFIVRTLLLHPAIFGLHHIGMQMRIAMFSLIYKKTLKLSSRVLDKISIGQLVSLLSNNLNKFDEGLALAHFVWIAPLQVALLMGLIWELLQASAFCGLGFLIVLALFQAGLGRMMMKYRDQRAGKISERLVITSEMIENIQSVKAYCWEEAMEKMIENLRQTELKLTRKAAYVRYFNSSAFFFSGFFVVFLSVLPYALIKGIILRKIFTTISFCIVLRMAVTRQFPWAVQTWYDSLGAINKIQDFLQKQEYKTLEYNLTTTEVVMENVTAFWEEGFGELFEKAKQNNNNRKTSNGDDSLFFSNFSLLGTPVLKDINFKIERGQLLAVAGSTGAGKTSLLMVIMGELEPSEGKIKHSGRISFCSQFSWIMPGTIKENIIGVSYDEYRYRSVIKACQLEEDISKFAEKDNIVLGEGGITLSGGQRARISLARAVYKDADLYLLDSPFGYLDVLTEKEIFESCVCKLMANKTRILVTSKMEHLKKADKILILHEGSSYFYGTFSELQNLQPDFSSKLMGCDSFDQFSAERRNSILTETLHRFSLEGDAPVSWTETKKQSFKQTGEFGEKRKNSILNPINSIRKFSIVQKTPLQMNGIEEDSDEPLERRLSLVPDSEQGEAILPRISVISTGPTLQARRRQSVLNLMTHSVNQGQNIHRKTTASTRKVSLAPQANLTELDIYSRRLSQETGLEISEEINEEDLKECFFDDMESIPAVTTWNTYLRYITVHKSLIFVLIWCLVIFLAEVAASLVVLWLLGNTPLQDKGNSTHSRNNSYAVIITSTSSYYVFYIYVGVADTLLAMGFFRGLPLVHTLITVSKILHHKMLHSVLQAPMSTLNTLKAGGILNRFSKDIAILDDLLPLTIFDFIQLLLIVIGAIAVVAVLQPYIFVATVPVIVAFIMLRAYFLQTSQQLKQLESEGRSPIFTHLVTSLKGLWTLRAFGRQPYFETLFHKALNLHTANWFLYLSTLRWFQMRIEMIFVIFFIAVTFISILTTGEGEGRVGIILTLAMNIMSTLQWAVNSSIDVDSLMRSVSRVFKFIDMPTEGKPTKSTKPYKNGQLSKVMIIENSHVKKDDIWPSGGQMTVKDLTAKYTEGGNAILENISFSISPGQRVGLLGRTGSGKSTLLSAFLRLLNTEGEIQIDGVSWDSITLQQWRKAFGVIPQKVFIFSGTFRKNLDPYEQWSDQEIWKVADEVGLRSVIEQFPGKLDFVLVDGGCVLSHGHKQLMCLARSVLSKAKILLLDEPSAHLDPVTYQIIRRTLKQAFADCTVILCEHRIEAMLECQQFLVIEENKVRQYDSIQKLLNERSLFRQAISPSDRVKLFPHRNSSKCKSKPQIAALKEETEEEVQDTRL

Row | Compound | Emax [%] | EC50 [nM]
1 | O=C(Nc1ccc(N2C3CCC2[C@H](O)C3)cc1C(F)(F)F)c1c[nH]c2cccc(C(F)(F)F)c2c1=O (stereo partly drawn) [Compound 1a] | 25 to 100 | < 2000
2 | O=C(Nc1ccc(N2C3CCC2CC3)cc1C(F)(F)F)c1c[nH]c2cccc(C(F)(F)F)c2c1=O [Formula II, N-(4-(7-azabicyclo[2.2.1]heptan-7-yl)-2-(trifluoromethyl)phenyl)-4-oxo-5-(trifluoromethyl)-1,4-dihydroquinoline-3-carboxamide] | 25 to 100 | < 2000
3 | O=C(Nc1ccc(N2[C@@H]3CC[C@H]2[C@H](O)C3)cc1C(F)(F)F)c1c[nH]c2cccc(C(F)(F)F)c2c1=O (relative stereo) [Compound 1b] | > 100 | < 2000

Reference: patent US8404849B2, “Processes for producing modulators of cystic fibrosis transmembrane conductance regulator” (Vertex Pharmaceuticals, priority 2010, dated 2013)
